Data: the NIST ThermoML archive (doi:10.1021/acs.jced.8b00370)

Experiment: mn = molality of the nth substance listed, in mol/kg
Conditions: 100 kPa, Liquid; for speed of sound: Frequency=3 MHz, Single path-length method; for mass density: Vibrating tube method

OC[C@H]1O[C@@](CO)(O[C@H]2O[C@H](CO)[C@@H](O)[C@H](O)[C@H]2O)[C@@H](O)[C@@H]1O [D-sucrose] + O
Conditions	mass density, 288.15 K [kg/m3]	mass density, 298.15 K [kg/m3]	mass density, 308.15 K [kg/m3]	mass density, 318.15 K [kg/m3]	speed of sound, 288.15 K [m/s]	speed of sound, 298.15 K [m/s]	speed of sound, 308.15 K [m/s]	speed of sound, 318.15 K [m/s]
m1 = 0.1002	1012.01	1009.81	1006.68	1002.77	1476.3	1506	1528.2	1544
m1 = 0.2007	1024.37	1022.04	1018.8	1014.82	1486.2	1515	1536.5	1551.6
m1 = 0.3011	1036.19	1033.73	1030.39	1026.34	1496	1524	1544.7	1559.1
m1 = 0.4034	1047.72	1045.13	1041.69	1037.58	1506	1533.2	1553.1	1566.7
m1 = 0.4996	1058.12	1055.43	1051.89	1047.73	1515.3	1541.7	1561	1574.3
m1 = 0.6018	1068.73	1065.92	1062.29	1058.07	1525.2	1550.6	1569.3	1581.7
m1 = 0.7022	1078.71	1075.81	1072.09	1067.82	1534.9	1559.3	1577.2	1589.3
m1 = 0.7978	1087.87	1084.86	1081.07	1076.72	1543.9	1567.4	1584.8	1596.1
m1 = 0.8955	1096.86	1093.77	1089.9	1085.49	1552.9	1575.6	1592.3	1603.2
m1 = 0.9969	1105.83	1102.65	1098.71	1094.23	1562.2	1583.8	1600.1	1611
